The target of one test is T1, dynamin-1 (Homo sapiens, UniProt Q05193).
T1 sequence (Q05193 1-864): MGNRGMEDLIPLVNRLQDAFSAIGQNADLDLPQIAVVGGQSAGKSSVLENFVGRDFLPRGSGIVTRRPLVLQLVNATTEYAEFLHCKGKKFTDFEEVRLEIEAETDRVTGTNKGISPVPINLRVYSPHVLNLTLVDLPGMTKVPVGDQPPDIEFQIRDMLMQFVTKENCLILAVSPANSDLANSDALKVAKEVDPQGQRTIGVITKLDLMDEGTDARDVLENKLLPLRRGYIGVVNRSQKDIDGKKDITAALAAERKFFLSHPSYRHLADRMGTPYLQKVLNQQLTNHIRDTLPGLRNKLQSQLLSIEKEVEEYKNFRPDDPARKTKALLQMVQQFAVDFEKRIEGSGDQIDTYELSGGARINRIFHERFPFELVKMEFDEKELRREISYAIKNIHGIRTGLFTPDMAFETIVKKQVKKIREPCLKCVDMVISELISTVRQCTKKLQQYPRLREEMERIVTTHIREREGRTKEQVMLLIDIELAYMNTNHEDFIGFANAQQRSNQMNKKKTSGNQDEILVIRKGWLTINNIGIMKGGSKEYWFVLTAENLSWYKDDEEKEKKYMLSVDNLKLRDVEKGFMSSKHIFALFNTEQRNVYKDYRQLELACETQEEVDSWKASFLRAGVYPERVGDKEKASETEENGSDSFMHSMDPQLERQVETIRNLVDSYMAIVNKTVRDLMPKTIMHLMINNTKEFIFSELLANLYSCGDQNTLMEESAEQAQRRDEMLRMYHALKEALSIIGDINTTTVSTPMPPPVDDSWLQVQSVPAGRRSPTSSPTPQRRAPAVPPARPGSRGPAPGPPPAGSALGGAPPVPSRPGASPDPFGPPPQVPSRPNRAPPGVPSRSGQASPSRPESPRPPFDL
As to the kind of experiment: In vitro GTPase assay, recombinant dynamin-1. The test is classed as biochemical. To be noted: recombinant dynamin-1 25 ng, FIG. 2B. The method, then: First, mitochondrial fission inhibitor constructs were tested to determine what, if any, effects each peptide had on enzyme (GTPase) activity. Recombinant protein Drp1, Mfn1, OPA1 or dynamin-1 (25 ng) was incubated with the indicated modulator peptides for 30 min. GTPase activity was assayed in vitro using a GTPase assay kit (Innova Biosciences, Littleton, USA, or Novus Biologicals, Littleton, Colo.) according to manufacturer's instructions.

Test [1] relates to Primary rat dopaminergic neurons. Put plainly: Mitochondrial superoxide production in primary dopaminergic neurons exposed to MPP+. The test is classed as cell-based. To be noted: P110 1 μM, MPP+ 1 μM, 2 hrs, FIG. 10A. The method, then:
Primary rat dopaminergic neurons (cultured for 6 days) were treated without or with P110 (1 μM) followed by treatment with or without MPP+(1 μM). Two hrs following MPP+ treatment, the cells were stained with MITOSOX™ red (to measure mitochondrial superoxide production) and anti-TH antibody (a marker of dopaminergic neurons). Fifteen hrs after MPP+ treatment, cells were stained with anti-TH antibody and anti-Tom20 antibody (a marker of mitochondria).

The subject of the next test is SH-SY5Y cells. As to the kind of experiment: Apoptosis markers on mitochondria of SH-SY5Y cells (western blot: NT-Bax, cytochrome c, Bcl-2). It is filed as cell-based, human. The conditions noted are these: MPP+ 2 mM 1 hour, FIG. 9A. The procedure:
SH-SY5Y neuronal cells were treated with P110 followed by the exposure to MPP+(2 mM for 1 hour). Active form of Bax (NT-Bax), cytochrome c and Bcl-2 on the mitochondria were determined by western blot analysis with the indicated antibodies. Shown are representative data of three independent experiments. Quantification of the data are provided as mean±SE of three independent experiments.
In general terms: A western blot detects proteins with antibodies after separation by electrophoresis.

In test [2] the test system is mitochondrial electron transport chain (complexes I-V). Put plainly: Mitochondrial complex I-V assembly in SH-SY5Y cells (western blot). The test is classed as cell-based, human. To be noted: SH-SY5Y treated with MPP+, FIG. 8. The method, then:
The oxidative phosphorylation system in the mitochondria is responsible for generating ATP and consists of five major membrane protein complexes, the mitochondrial complexes I-V. MPP+ is a specific mitochondrial complex I inhibitor. P110 was tested for potential effects on MPP+-induced defects in mitochondrial complexes. […] The lower panel is a histogram in which the quantitative data generated from the western blot are expressed as mean±S.E. of 3 independent experiments.

This note sets out measurements from patent US10912815B2, “Inhibitors of mitochondrial fission and methods of use thereof” (The Board of Trustees of the Leland Stanford Junior …, priority 2011, dated 2021).

No end group written: not given here.

As for “RRRQRRKKRGYGGDLLPRGS (RRRQRRKKRGYGGDLLPRGS-NH2) [P110, TAT47-57 carrier, GG linker, Drp1 region 110 (GTPase domain) peptide DLLPRGS; C-terminus C(O)-NH2]”, the “effect on GTPase activity of dynamin-1” value with dynamin-1 is recorded as “no effects”. Further, in test [1], the “mitochondrial ROS (superoxide) production” value is recorded as “reduced”. In addition, in the test on SH-SY5Y cells, the “Bcl-2 levels on the mitochondria” value is reported as “improved decreased Bcl-2 levels”, the “accumulation of active Bax on the mitochondria” value is “greatly reduced accumulation of active Bax” and the “release of cytochrome c from the mitochondria” value is “blocked the release of cytochrome c”. Moreover, in test [2], the “MPP+-induced reduction of NDUFB8 (complex I) and MTCOI (complex IV)” value is reported as “abolished the reduction of these two proteins”; the “assembly of the mitochondrial electron transport chain (ETC)” value is given as “improved the assembly”.
